PubChem BioAssay AID1645863 (Buhrlage Lab, Dana-Farber Cancer Institute and Novartis …, 2021)
The source made the active and inactive calls. No rule for the calls is given here.

Target: Ubiquitin carboxyl-terminal hydrolase 10 (Homo sapiens) (UniProt Q14694)
Experiment: ubiquitin-specific protease 10 DUB inhibitors, concentration-effect, biochemical, verification of primary screen actives (AID 1645863);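 also: potency values describe inhibition of USP10 cleavage of a fluorogenic ubiquitin substrate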
Settings: USP10 deubiquitinase enzymatic assay

Ubiquitin carboxyl-terminal hydrolase 10 (Homo sapiens), sequence (Q14694 whole entry, looked up): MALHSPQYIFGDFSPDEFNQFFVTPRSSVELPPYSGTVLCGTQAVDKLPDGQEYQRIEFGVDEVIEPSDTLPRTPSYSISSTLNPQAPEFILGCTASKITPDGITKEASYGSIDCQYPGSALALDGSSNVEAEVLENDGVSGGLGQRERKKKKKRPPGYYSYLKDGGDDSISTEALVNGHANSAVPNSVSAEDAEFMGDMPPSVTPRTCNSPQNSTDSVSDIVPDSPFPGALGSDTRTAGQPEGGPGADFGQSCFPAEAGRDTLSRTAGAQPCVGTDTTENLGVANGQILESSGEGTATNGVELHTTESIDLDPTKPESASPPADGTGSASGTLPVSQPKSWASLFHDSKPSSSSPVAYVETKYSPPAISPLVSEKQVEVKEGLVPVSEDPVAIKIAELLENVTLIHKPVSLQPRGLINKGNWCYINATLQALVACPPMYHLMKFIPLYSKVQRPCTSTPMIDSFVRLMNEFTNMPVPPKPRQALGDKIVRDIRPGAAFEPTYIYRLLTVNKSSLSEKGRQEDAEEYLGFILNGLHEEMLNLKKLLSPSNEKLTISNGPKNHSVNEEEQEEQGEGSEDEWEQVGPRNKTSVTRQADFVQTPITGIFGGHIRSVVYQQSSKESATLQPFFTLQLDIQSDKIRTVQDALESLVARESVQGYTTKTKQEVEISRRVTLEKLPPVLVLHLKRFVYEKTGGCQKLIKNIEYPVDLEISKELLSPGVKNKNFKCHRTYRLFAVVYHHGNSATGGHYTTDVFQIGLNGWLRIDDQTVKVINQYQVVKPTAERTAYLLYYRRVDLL

SMILES	IC50
Cc1cc(=O)n(CC(=O)Nc2ccccc2C)c(Nc2ccc(F)cc2)n1	28.4 µM
CC1(C(=O)NCc2ccc(F)cc2)Cn2nc(-c3ccco3)cc2C(=O)N1c1ccc2c(c1)OCCO2 (stereo unspecified)	> 40 µM (inactive)
Cc1ccc2c(c1)N=C(c1ccc([N+](=O)[O-])cc1)CO2	> 40 µM (inactive)
O=C(Cn1c(=O)n(-c2ccc(Cl)cc2)c(=O)c2c3c(sc21)CCCC3)NCC1CCCO1 (stereo unspecified)	> 40 µM (inactive)
COc1cccc2cc(C(=O)Nc3nc(-c4ccncc4)cs3)oc12	9.63 µM
Cc1ccc(NC(=O)c2cc(-c3cccnc3)n[nH]2)cc1F	> 40 µM (inactive)
c1ccc2sc(-c3csc(-c4ccc5c(c4)OCCO5)n3)nc2c1	> 40 µM (inactive)
O=C(Nc1cccc(-c2nc3cnccc3o2)c1)c1ccc(Br)o1	> 40 µM (inactive)
O=C(NC1CCCC1)C1CC(=O)N(c2cccc(-c3noc(-c4cccs4)n3)c2)C1 (stereo unspecified)	> 40 µM (inactive)
O=C(c1cc(S(=O)(=O)Nc2ccc(Cl)cc2)ccc1Cl)N1CCCc2ccccc21	> 40 µM (inactive)
O=C(C1=CSCCO1)N1CCc2ccccc2C1	> 40 µM (inactive)
Cc1ccc2nc(NC(=O)/C=C/c3ccc4c(c3)OCO4)sc2c1	15.1 µM
CSc1nc(N)c2c(n1)N[C@H]1OC[C@H](O)[C@H](O)[C@H]1N2	> 40 µM (inactive)
CCOC(=O)N1CCN(C(=O)c2ccc(CS(=O)c3ccccc3Cl)o2)CC1 (stereo unspecified)	> 40 µM (inactive)
Cn1cc(-c2nc(C(=O)Nc3ccc(C#N)cc3)cs2)c2cccnc21	> 40 µM (inactive)
CN(C)S(=O)(=O)c1ccc(NC(=O)CN2CCCc3ccccc32)cc1	> 40 µM (inactive)
CCCCCCCCCC(CCCCCCCCCC(=O)O)O[C@H]1O[C@@H](COC(C)=O)[C@H](O)[C@@H](O)[C@H]1OC(=O)CC(=O)O (stereo partly specified)	29.4 µM
COc1ccc(S(=O)(=O)N2CCc3ccccc32)cc1C(=O)Nc1ccc2[nH]c(=O)[nH]c2c1	24.2 µM

SMILES	IC50
Cc1ccccc1-n1ccc2nc(N3CCCC3)ncc2c1=O	> 40 µM (inactive)
CCOC(=O)c1cc2c(ccn2C)n1CC(=O)NC1CC1	> 40 µM (inactive)
O=C(COc1nc2ccccc2nc1N1CCOCC1)NC(c1ccccc1)c1ccccc1	> 40 µM (inactive)
Cc1cc(Cl)ccc1NC(=O)c1cc(-c2ccncc2)n[nH]1	> 40 µM (inactive)
Cc1ccc2[nH]cc(S(=O)(=O)c3cc(F)cc(F)c3)c(=O)c2c1	> 40 µM (inactive)
O=C(Nc1ccc2snnc2c1)Nc1ccc(F)cc1F	> 40 µM (inactive)
Cc1cc(C(F)(F)F)n2nc(C3CCN(C(=O)c4cnn(C)c4C)C3)cc2n1 (stereo unspecified)	> 40 µM (inactive)
O=C(c1cscn1)N1CCC2(CC1)CC1(CO2)Nc2ccccc2-n2cccc21 (stereo unspecified)	> 40 µM (inactive)
CN(C)[C@@H]1C(=O)C(C(N)=O)=C(O)[C@@]2(O)C(=O)C3=C(O)c4c(O)cccc4[C@@](C)(O)C3[C@H](O)[C@@H]12 (stereo partly specified)	1.1 µM
O=C(Nc1cc(F)c2nc(N3CCCC3)ccc2c1)c1ccco1	> 40 µM (inactive)
O=C(c1ccccc1CN1CCOCC1)N1CCOCC2(C1)CN(c1ccc(F)cc1)C(=O)O2 (stereo unspecified)	> 40 µM (inactive)
Cc1ccc2[nH]c(=O)c(CN(CC3COCCO3)S(=O)(=O)c3ccc(F)cc3)cc2c1 (stereo unspecified)	> 40 µM (inactive)
O=C(NCc1ccc2c(c1)OCO2)c1cc2c(s1)-c1ccccc1OC2	> 40 µM (inactive)
CN(C)c1ccc(CNC(=O)c2nnc(C(=O)Nc3ccccc3)s2)cc1	> 40 µM (inactive)
CC(C)CC(=O)Nc1cc(F)c2nc(N3CCOCC3)ccc2c1	> 40 µM (inactive)
COc1ccccc1NC(=O)CSC1=NC2(CCCCC2)Nc2ccccc21	> 40 µM (inactive)
COc1ccc(Nc2nc3c(S(=O)(=O)c4ccc(C)cc4)nnn3c3ccsc23)c(OC)c1	10.5 µM

Continued, values first:

IC50	SMILES
39.3 µM	O=C1CC(c2nc3ccccc3n2CCOc2ccc(Cl)cc2)CN1c1ccccc1 (stereo unspecified)
> 40 µM (inactive)	Cc1ccc(N2CC(c3nnc(NC(=O)CCc4ccccc4)s3)CC2=O)cc1 (stereo unspecified)
> 40 µM (inactive)	O=C(c1cc2occc2c(Nc2ccc(F)cc2)n1)N1CCN(c2ccccc2)CC1
> 40 µM (inactive)	O=C(Cn1c(=O)[nH]c2c(-c3ccccc3)c[nH]c2c1=O)NCc1ccccc1Cl
> 40 µM (inactive)	COc1cc(NC(=O)Cn2c(=O)n(-c3ccc(CC(=O)NC4CCCC4)cc3)c(=O)c3ccccc32)cc(OC)c1
18.8 µM	CC(=O)NS(=O)(=O)c1ccc(NC(=O)/C=C/c2cn(-c3ccccc3)nc2-c2ccccc2)cc1
27.4 µM	O=C(Cn1c(=O)c2ccccc2n(CC(=O)Nc2cccc(F)c2)c1=O)NCCc1ccccc1
18.2 µM	O=C(CCCc1nnc2c(=O)n(-c3cccc(F)c3)ccn12)NCc1ccc(Cl)cc1
> 40 µM (inactive)	COc1ccc(-c2cc3nc([C@H](C)NC(=O)Cc4cccc(F)c4)nn3cn2)cc1
38.4 µM	COc1ccc(CC(=O)Nc2c(NCc3ccccc3)c3ccccc3oc2=O)cc1
> 40 µM (inactive)	O=C(COc1ccc(N2CC(C(=O)NCc3ccccc3)CC2=O)cc1)Nc1ccc(F)cc1 (stereo unspecified)
> 40 µM (inactive)	COC(=O)c1ccc(C2c3[nH]c4ccccc4c3C[C@@H]3C(=O)N(c4ccc5c(c4)OCCO5)C(=O)N23)cc1 (stereo partly specified)
> 40 µM (inactive)	Cc1ccc(C(=O)Nc2ccc3c(c2)Sc2ncccc2C(=O)N3C(C)C)cc1C
> 40 µM (inactive)	O=C(NCc1ccco1)c1ccc(Cn2c(SCc3ccccc3)nc3ccncc32)cc1
> 40 µM (inactive)	N#Cc1cccc(NC(=O)Cn2cccc2-c2nc(-c3ccccc3)no2)c1
> 40 µM (inactive)	COc1ccccc1/C=C/C(=O)NC(Cc1ccccc1)c1nc2ccccc2[nH]1 (stereo unspecified)

IC50	SMILES
> 40 µM (inactive)	COc1ccc(CNC(=O)CN2C(=O)CC(c3ccccc3)=Nc3ccccc32)cc1
24.4 µM	O=C(NCCc1nc2ccccc2n1Cc1ccccc1F)c1ccc(Cl)cc1
16.3 µM	Cc1cccc(OCCn2c(CCNC(=O)C3CCCCC3)nc3ccccc32)c1
> 40 µM (inactive)	CCOc1ccc(NS(=O)(=O)c2ccc(NC(=O)Nc3ccccc3)cc2)cc1
> 40 µM (inactive)	COc1ccc(Cn2nc(C)cc2NC(=O)c2cccc(F)c2)cc1OC
> 40 µM (inactive)	COc1ccc(-c2cc3c(=O)n(CC(=O)Nc4ccccc4C)ccn3n2)cc1
> 40 µM (inactive)	CCOc1ccccc1-c1cc(NC(=O)c2cc3ccc4cccnc4c3[nH]2)on1
> 40 µM (inactive)	Cc1cc(=O)n(CC(=O)Nc2ccc3c(c2)OCO3)c2c1c(-c1ccccc1)nn2-c1ccccc1
> 40 µM (inactive)	Cc1ccc(Cn2c(C(=O)O)c(CNCc3ccco3)c3ccccc32)cc1
36.7 µM	COc1ccc(CC(=O)Nc2ccccc2-c2nc3ccccc3[nH]2)cc1OC
> 40 µM (inactive)	Cn1c(=O)c(-c2ccc(C(=O)NCc3cccc(Cl)c3)cc2)nc2cccnc21
19.8 µM	COc1cccc(-n2cnc3cc(C(=O)NCCc4ccccc4)ccc3c2=O)c1
> 40 µM (inactive)	COc1ccc(Cn2c(=O)[nH]c3cc(C(=O)NCCCN4CCN(c5cccc(Cl)c5)CC4)ccc3c2=O)cc1
> 40 µM (inactive)	CCc1nnc(C(=O)Nc2ccc(C(=O)NCc3ccc(OC(C)C)cc3)cc2)s1
> 40 µM (inactive)	O=C(Cn1c(=O)c2cccn2c2ccccc21)NCc1ccc(F)cc1
